Results taken from US7125848B2, “Methods of treating non-inflammatory gastrointestinal tract disorders using Cav2.2 subunit calcium channel modulators” (Dynogen Pharmaceuticals, Inc., priority 2003, dated 2006).

Tested on: HVA calcium channel currents in GI tract afferent DRG neurons
Type: cell-based, rat

## Omega-conotoxin GVIA (CKSHYPGSSCSHYPTSYNCCRSCNHYPYTKRCY; VARIANT (0)...(0) omega-conotoxin GVIA; listed as Conus geographus)
  calcium current amplitude as percentage of control amplitudes: 59±4%
